Results taken from the NIST ThermoML archive (doi:10.1016/j.jct.2015.08.024).
Numbers after ± are expanded uncertainties.

Details: Liquid, Closed cell (Static) method

vapor or sublimation pressure (323.15 K) [kPa]	vapor or sublimation pressure (333.15 K) [kPa]	vapor or sublimation pressure (343.15 K) [kPa]	vapor or sublimation pressure (353.15 K) [kPa]	SMILES
344.4 ± 1.6	463.2 ± 1.9	609.8 ± 2.4	789.8 ± 2.9	FC(F)CC(F)(F)F [1,1,1,3,3-pentafluoropropane]
1177.3 ± 3.7	1500.6 ± 4.7	1886.8 ± 5.9	2342.7 ± 7.3	CC(F)F [1,1-difluoroethane]
